Results reported in the NIST ThermoML archive (doi:10.1021/acs.jced.9b00752).
Where “and” joins values, the source holds several entries; their conditions need not be identical. Identical values can stand only once.

Experiment: mn = molality of the nth substance listed, in mol/kg
Conditions: 100 kPa, Liquid, Vibrating tube method

N[C@@H](Cc1ccc(O)cc1)C(=O)O [3-(p-hydroxyphenyl)-L-alanine] + O
mass density
Conditions	278.65 K	279.15 K	279.65 K	280.15 K	280.65 K	281.15 K	281.65 K	282.15 K	282.65 K	283.15 K
m1 = 0.0005	999.962 kg/m3	999.948 kg/m3	999.932 kg/m3	999.91 kg/m3	999.886 kg/m3	999.858 kg/m3	999.824 kg/m3	999.79 kg/m3	999.751 kg/m3	999.71 kg/m3
m1 = 0.001	999.995 kg/m3	999.981 kg/m3	999.964 kg/m3	999.941 kg/m3	999.918 kg/m3	999.89 kg/m3	999.857 kg/m3	999.821 kg/m3	999.781 kg/m3	999.741 kg/m3
m1 = 0.0011	1000.02 kg/m3	1000.01 kg/m3	999.989 kg/m3	999.968 kg/m3	999.946 kg/m3	999.917 kg/m3	999.883 kg/m3	999.848 kg/m3	999.809 kg/m3	999.765 kg/m3
m1 = 0.0022	1000.09 kg/m3	1000.08 kg/m3	1000.06 kg/m3	1000.04 kg/m3	1000.01 kg/m3	999.984 kg/m3	999.951 kg/m3	999.916 kg/m3	999.876 kg/m3	999.835 kg/m3
m1 = 0.0026	1000.11 kg/m3	1000.1 kg/m3	1000.08 kg/m3	1000.06 kg/m3	1000.03 kg/m3	1000 kg/m3	999.971 kg/m3	999.937 kg/m3	999.897 kg/m3	999.854 kg/m3
m1 = 0.0035	1000.18 kg/m3	1000.16 kg/m3	1000.14 kg/m3	1000.12 kg/m3	1000.1 kg/m3	1000.07 kg/m3	1000.03 kg/m3	1000 kg/m3	999.961 kg/m3	999.919 kg/m3
m1 = 0.0036	1000.18 kg/m3	1000.16 kg/m3	1000.14 kg/m3	1000.12 kg/m3	1000.1 kg/m3	1000.07 kg/m3	1000.04 kg/m3	1000 kg/m3	999.962 kg/m3	999.92 kg/m3
m1 = 0.0038	1000.18 kg/m3	1000.17 kg/m3	1000.15 kg/m3	1000.13 kg/m3	1000.1 kg/m3	1000.08 kg/m3	1000.04 kg/m3	1000.01 kg/m3	999.967 kg/m3	999.925 kg/m3
m1 = 0.0045	1000.23 kg/m3 and 1000.24 kg/m3	1000.22 kg/m3 and 1000.23 kg/m3	1000.2 kg/m3 and 1000.21 kg/m3	1000.18 kg/m3 and 1000.19 kg/m3	1000.15 kg/m3 and 1000.16 kg/m3	1000.13 kg/m3 and 1000.14 kg/m3	1000.09 kg/m3 and 1000.1 kg/m3	1000.06 kg/m3 and 1000.07 kg/m3	1000.02 kg/m3 and 1000.03 kg/m3	999.976 kg/m3 and 999.985 kg/m3
m1 = 0.0047	1000.24 kg/m3	1000.22 kg/m3	1000.21 kg/m3	1000.18 kg/m3	1000.16 kg/m3	1000.13 kg/m3	1000.1 kg/m3	1000.06 kg/m3	1000.02 kg/m3	999.98 kg/m3
m1 = 0.0053	1000.28 kg/m3 and 1000.29 kg/m3	1000.27 kg/m3 and 1000.28 kg/m3	1000.25 kg/m3 and 1000.26 kg/m3	1000.23 kg/m3 and 1000.24 kg/m3	1000.2 kg/m3 and 1000.21 kg/m3	1000.17 kg/m3 and 1000.18 kg/m3	1000.14 kg/m3 and 1000.15 kg/m3	1000.1 kg/m3 and 1000.12 kg/m3	1000.07 kg/m3 and 1000.08 kg/m3	1000.02 kg/m3 and 1000.03 kg/m3
m1 = 0.0055	1000.28 kg/m3	1000.27 kg/m3	1000.25 kg/m3	1000.23 kg/m3	1000.2 kg/m3	1000.17 kg/m3	1000.14 kg/m3	1000.1 kg/m3	1000.07 kg/m3	1000.02 kg/m3
